From patent US10106578B2, “Melanocortin-1 receptor-specific linear peptides” (Palatin Technologies, Inc., priority 2012, dated 2018) come the findings set out here.

The structures appear in SMILES notation. Where a SMILES comes first, the peptide text is derived from it. [ ]: non-standard residue; d: D form. Nle = CCCC[C@H](N)C(=O)O; Orn = NCCC[C@H](N)C(=O)O; Dab = NCC[C@H](N)C(=O)O

Assay [1] addresses T1, hMCR-4 (Homo sapiens, UniProt P32245).
T1 construct: expressed in transfected cells; host or cells: HEK-293 cells (membrane homogenates)
The assay is described as follows: Competitive inhibition binding assay using [I125]-NDP-α-MSH, hMCR-4 membranes. As to conditions: HEK-293 membranes, recombinant human MCR-4, [I125]-NDP-α-MSH; read-out: MC-4 Ki (average). On the procedure: (§1) A competitive inhibition binding assay was performed using membrane homogenates prepared from HEK-293 cells that express recombinant hMCR-1a or hMCR-4 (in each instance where the h prefix refers to human), or alternatively membrane homogenates from B16-F10 mouse melanoma cells containing endogenous murine MCR-1. In the examples that follow, all MCR-1 and MCR-4 values are for human recombinant receptors, unless otherwise noted. Assays were performed in 96 well polypropylene round-bottom plates (VWR catalog number 12777-030). Membrane homogenates were incubated with 0.1 nM [I^125]-NDP-α-MSH (Perkin Elmer) and increasing concentrations of test peptides of the present invention in buffer containing 25 mM HEPES buffer (pH 7.5) with 100 mM NaCl, 2 mM CaCl2, 2 mM MgCl2, 0.3 mM 1,10-phenanthroline, and 0.2% bovine serum albumin. After incubation for 90 minutes at 37° C., the assay mixture was filtered onto GF/B Unifilter plates (Perkin-Elmer catalog number 6005177) and washed with 3 mL of ice-cold buffer per well. Filters were air dried and 35 μL of scintillation cocktail added to each well. Plates were counted in a Microbeta counter for bound radioactivity. Non-specific binding was measured by inhibition of binding of [I^125]-NDP-α-MSH in the presence of 1 μM NDP-α-MSH. Maximal specific binding (100%) was defined as the difference in radioactivity (cpm) bound to cell membranes in the absence and presence of 1 μM NDP-α-MSH. Each assay was conducted in duplicate and the actual mean values are described, with results less than 0% reported as 0%. Ki values for peptides of the present invention were determined using Graph-Pad PRISM® curve-fitting software.
(§2) Peptides of the following structures were synthesized and purified as described in Section 5 above, with the resulting peptide having the structure depicted. After synthesis and purification, the foregoing peptide was tested as described in Section 8 above, and average MCR-1 and MCR-4 Ki values determined as indicated. All Ki values were determined using [I^125]-NDP-α-MSH. All results are expressed in nM except for Emax values, which are percentage values.

Assay [2] concerns the target T2, hMCR-1 (Homo sapiens, UniProt Q01726).
T2 construct: endogenous in cells; host or cells: HBL human melanoma cell line
The assay is described as follows: Assay for agonist activity: cAMP accumulation in HBL human melanoma cells. Conditions: for Emax: compared to reference agonist NDP-α-MSH, read-out: MC-1 Emax (average; cAMP HBL). It counts as cell-based.
From the text: Accumulation of intracellular cAMP was examined as a measure of the ability of the peptides of the present invention to elicit a functional response in a human melanoma cell line, HBL, that express hMCR-1 (see Kang, L., et al., “A selective small molecule agonist of melanocortin-1 receptor inhibits lipopolysaccharide-induced cytokine accumulation and leukocyte infiltration in mice,” J. Leuk. Biol. 80:897-904 (2006)) or HEK-293 cells that express hMCR-4. Confluent HBL cells that express hMCR-1 or HEK-293 cells that express recombinant hMCR-4 were detached from culture plates by incubation in enzyme-free cell dissociation buffer. Dispersed cells were suspended in Earle's Balanced Salt Solution containing 10 mM HEPES (pH 7.5), 1 mM MgCl2, 1 mM glutamine, 0.5% albumin and 0.3 mM 3-isobutyl-1-methyl-xanthine (IBMX), a phosphodiesterase inhibitor. The cells were plated in 96-well plates at a density of 0.4×10^5 cells per well for HBL cells and 0.5×10^5 cells per well for HEK-293 cells and pre-incubated for 10 minutes. Cells were exposed for 15 minutes at 37° C. to peptides of the present invention dissolved in DMSO (final DMSO concentration of 1%) at a concentration range of 0.05-5000 nM in a total assay volume of 200 μL. NDP-α-MSH was used as the reference agonist. cAMP levels were determined by an HTRF® cAMP cell-based assay system from Cisbio Bioassays utilizing cryptate-labeled anti-cAMP and d2-labeled cAMP, with plates read on a Perkin-Elmer Victor plate reader at […]. Data analysis was performed by nonlinear regression analysis with Graph-Pad PRISM® software. Maximum efficacy (Emax) values were determined for each test peptide of the present invention, compared to that achieved by the reference melanocortin agonist NDP-α-MSH.
as §2
In general terms: cAMP levels reflect the balance of adenylyl cyclase and phosphodiesterase activity.

Assay [3] has as its target T3, hMCR-1a (Homo sapiens, UniProt Q01726).
T3 construct: expressed in transfected cells; host or cells: HEK-293 cells (membrane homogenates)
The assay is described as follows: Competitive inhibition binding assay using [I125]-NDP-α-MSH, hMCR-1a membranes. As to conditions: HEK-293 membranes, recombinant human MCR-1, [I125]-NDP-α-MSH; read-out: MC-1 Ki (average). On the procedure:
as §1, §2

T3 sequence (Q01726 whole entry): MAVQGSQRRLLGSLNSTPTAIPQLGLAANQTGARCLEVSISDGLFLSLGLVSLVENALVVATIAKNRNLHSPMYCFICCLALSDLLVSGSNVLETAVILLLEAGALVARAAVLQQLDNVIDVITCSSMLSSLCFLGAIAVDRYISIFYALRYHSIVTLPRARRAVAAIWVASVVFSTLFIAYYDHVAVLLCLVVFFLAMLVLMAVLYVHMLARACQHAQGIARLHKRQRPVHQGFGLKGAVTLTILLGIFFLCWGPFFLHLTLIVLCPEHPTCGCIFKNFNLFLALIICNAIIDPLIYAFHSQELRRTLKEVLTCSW
T2 sequence (Q01726 whole entry): as above
T1 sequence (P32245 whole entry): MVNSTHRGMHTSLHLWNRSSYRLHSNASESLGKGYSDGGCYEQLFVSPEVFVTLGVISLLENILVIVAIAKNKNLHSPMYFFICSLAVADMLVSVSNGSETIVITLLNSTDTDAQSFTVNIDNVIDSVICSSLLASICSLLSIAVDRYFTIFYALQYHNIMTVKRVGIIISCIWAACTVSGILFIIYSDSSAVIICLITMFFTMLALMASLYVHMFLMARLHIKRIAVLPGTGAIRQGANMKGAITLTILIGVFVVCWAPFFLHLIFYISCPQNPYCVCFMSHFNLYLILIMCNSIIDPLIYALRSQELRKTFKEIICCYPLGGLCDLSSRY

In general, Ki refers to the dissociation constant of the complex between target and ligand, obtained from inhibition or displacement. The term Emax denotes the maximal effect, on the per cent scale that the assay sets. For the compound `CCCC[C@H](NC(C)=O)C(=O)N[C@@H](C)C(=O)N[C@@H](CCCN)C(=O)N[C@H](Cc1ccccc1)C(=O)N[C@@H](CCCNC(=N)N)C(=O)N[C@@H](C)C(=O)N[C@@H](Cc1c[nH]c2ccccc12)C(N)=O` [Example 9.21, Ac-Nle-Ala-Orn-D-Phe-Arg-Ala-Trp-NH2] (Ac-[Nle]A[Orn][dF]RAW-NH2), the values for the inhibitory constant (Ki) in assay [1] and in assay [3] were 7580 nM and 0.3 nM, respectively. For the same compound, the Emax in assay [2] is 107%.
Regarding `CCCC[C@H](NC(C)=O)C(=O)N[C@@H](C)C(=O)N[C@@H](Cc1c[nH]cn1)C(=O)N[C@H](Cc1ccccc1)C(=O)N[C@@H](CCCNC(=N)N)C(=O)N[C@@H](C)C(=O)N[C@H](Cc1c[nH]c2ccccc12)C(N)=O` [Example 9.9, Ac-Nle-Ala-His-D-Phe-Arg-Ala-D-Trp-NH2] (Ac-[Nle]AH[dF]RA[dW]-NH2), the Ki is 215 nM in assay [1] and 7 nM in assay [3]. In addition, the Emax in assay [2] came to 70%.
For `CCCC[C@H](NC(C)=O)C(=O)N[C@H](Cc1ccccc1)C(=O)N[C@@H](CCCNC(=N)N)C(=O)N[C@@H](C)C(=O)N[C@@H](Cc1c[nH]c2ccccc12)C(N)=O` [Example 9.15, Ac-Nle-D-Phe-Arg-Ala-Trp-NH2] (Ac-[Nle][dF]RAW-NH2), in that order: 7120 nM, 1290 nM and 67%.
As to `CCCC[C@H](NC(C)=O)C(=O)N[C@@H](C)C(=O)N[C@@H](CCN)C(=O)N[C@H](Cc1ccccc1)C(=O)N[C@@H](CCCNC(=N)N)C(=O)N[C@@H](C)C(=O)N[C@@H](Cc1c[nH]c2ccccc12)C(N)=O` [Example 9.22, Ac-Nle-Ala-Dab-D-Phe-Arg-Ala-Trp-NH2] (Ac-[Nle]A[Dab][dF]RAW-NH2), the inhibitory constant (Ki) in assay [1] was 7850 nM; in assay [3], 2 nM. Also, the Emax in assay [2] is 101%.
What is called EC50 is the concentration needed to bring the measured effect to its halfway point. `CCCC[C@H](NC(C)=O)C(=O)N[C@@H](C)C(=O)N[C@@H](Cc1c[nH]cn1)C(=O)N[C@H](Cc1ccccc1)C(=O)N[C@@H](CCCNC(=N)N)C(=O)N1CCC[C@H]1C(=O)N[C@H](Cc1c[nH]c2ccccc12)C(N)=O` [Example 9.13, Ac-Nle-Ala-His-D-Phe-Arg-Pro-D-Trp-NH2] (Ac-[Nle]AH[dF]RP[dW]-NH2): the inhibitory constant (Ki) in assay [1] was found to be 650 nM; in assay [3], 2 nM. The Emax in assay [2] came to 90%. Also, the half-maximal effective concentration (EC50) in assay [2] (read-out: MC-1 EC50 (average; cAMP HBL)) is 0.17 nM.
